Experimental data from US20080146987A1, “TREATMENT OF A SKIN CONDITION USING A PIPERINE-BASED COMPOSITION IN CONJUNCTION WITH IRRADIATION” (OREGON HEALTH & SCIENCE UNIVERSITY, priority 2006, published 2008).

Test system: HRA.HRII-c/+/Skh hairless pigmented mice
Experiment: visual pigmentation score after topical compounds with or without UVB, 13-week protocols
Format: in vivo
Conditions: HRA/Skh-II mice, four or more weeks
Experimental: Male and female inbred HRA.HRII-c/+/Skh hairless pigmented mice, age-matched (8-16 weeks old), were used in the following in vivo experiments for evaluation of pigmentation induced by piperine and/or UVR.
In one experiment, the compounds used included piperine, THP, CHP, and RCHP, each prepared in DMSO at a 50 mg/ml concentration, and applied to the backs of mice (n=4) twice daily on weekdays for 13 weeks, as shown in FIG. 3. As shown, Group A received treatment with compounds only from week 1-13. Group B was treated with compound from week 1-13, with additional UVB irradiation from weeks 5-13. Group F received UVB alone (no topical treatment) for 9 weeks, corresponding to weeks 5-13. Groups C, D and E were treated as Group B from weeks 1-7. All treatments was suspended for 3 weeks (8-10) and re-started as topical treatment with compounds only (Group C), UVB only (Group D), or topical treatment with UVB (Group E) from weeks 11-13.
Pigmentation was assessed visually by an investigator blinded to the treatment that the animals had received using the following scoring system: 0—no pigmentation; 1—first signs of pigmentation (spots); 2—light brown; 3—medium brown; 4—dark brown; 5—black. Scores obtained at the end of each week (Friday) are shown in FIG. 4 (piperine noted as PIP). […]

## O=C(CCCCc1ccc2c(c1)OCO2)NC1CCCCC1 [RCHP, 5-(3,4-methylenedioxyphenyl)-2,4-pentanoylcyclohexylamine]
  skin pigmentation in vivo after continuous topical application: stimulate the development of even skin pigmentation
